Results on one compound are retold here after patent publication US20240182513A1, “SEPARATION OF METAL IONS FROM A SAMPLE USING GLYCOLIPIDS” (ARIZONA BOARD OF REGENTS ON BEHALF OF THE UNIVERSITY OF …, priority 2021, published 2024).

The assay is described as follows: Ion flotation of uranium from Monument Valley groundwater with rhamnolipid collectors. The text has this: Groundwater Collection and Analysis: The Monument Valley site is in Cane Valley, AZ, which is in northeastern Arizona. Groundwater was collected from monitoring well 662, which is down gradient of the source zone within the boundaries of the uranium groundwater plume. Samples were collected using dedicated bladder pumps and a QED Micropurge Controller. Groundwater was collected into a 50 L LDPE carboy (Thermo Scientific Nalgene) after the groundwater's pH and dissolved oxygen levels from the pump stabilized. The solution was stored as received, on the lab bench at ambient temperature until use.
For cation and anion analysis, groundwater was filtered ([…]) then diluted with 2% trace metals grade nitric acid (Fisher Scientific, Waltham, MA) in metal-free polypropylene 15 mL centrifuge tubes (VWR, Radnor, PA). Cations were analyzed using an Elan DRC-II inductively coupled plasma mass spectrometer (ICP-MS). Anions (F^−1, Cl^−1, Br^−1, NO2^−1, NO3^−1, […], and SO4^−2) were analyzed by using a Thermo Scientific Dionex ICS-6000 high-performance ion chromatography system. Data generated in this geochemical analysis were used to model uranium speciation using Visual MINTEQ 3.1. Only major solution constituents—those greater than 10 μg L^−1 for metals or 5 μmol L^−1 for anions—were included in the experiment, and carbonates were excluded because they are stripped from solution when nitrogen is sparged in the flotation process.
Chemicals: Both biosynthetic and synthetic monorhamnolipid collectors were tested for flotation efficiency. Biosynthetic monorhamnolipid tail lengths ‘m’ and ‘n’ range from 4 to 12 due to natural congener variation. Synthetic monorhamnolipids (Rha-C10-C10, Rha-C12-C12, or Rha-C14-C14) were synthesized with equal length tails where ‘m’=‘n’=6-14. The production and purification of biosynthetic monorhamnolipids (bio-mRL) from Pseudomonas aeruginosa ATCC 9027 has been previously described by Hogan et al., J. Hazard. Mater. 2017, 340, pp. 171-178. This organism exclusively produces monorhamnolipids—rhamnolipids with a single rhamnose sugar in the hydrophilic moiety of the molecule—as a congener mixture with varying hydrophobic tail lengths, in which the rhamnosyl-β-hydroxydecanoyl-β-hydroxydecanoate (C10-C10) dominates at 75-85 wt %. A molecular weight of 504 g mol^−1 (based on the C10-C10 structure) was used to estimate the bio-mRL concentration. Synthetic monorhamnolipids with decyl (Rha-C10-C10), dodecyl (Rha-C12-C12), and tetradecyl (Rha-C14-C14) hydrophobic moieties were prepared for comparative experiment. The molecular weights of the synthetic monorhamnolipids are 504.7, 560.8, and 616.9, respectively. All solutions were made using nanopure water (≥18 MΩ-cm). pH was adjusted with HNO3 and NaOH. […]

With `CCCCCCCCCC(CC(=O)O)OC(=O)CC(CCCCCCCCC)OC1O[C@@H](C)[C@H](O)[C@@H](O)[C@H]1O` (stereo partly drawn) [Rha C12C12, rhamnosyl-β-hydroxydodecanoyl-62-hydroxydodecanoate], the uranium removal entry reads like this: (native pH 8) “did not collect metals”; (pH 7) “No significant amount of uranium was removed”. In addition, where the note is “pH 6.5”, the uranium removal percentage amounted to 6.6%.
